Results as given in paper PMC5597121, “The human bitter taste receptor T2R38 is broadly tuned for bacterial compounds” (PLoS ONE, 2017).
Residue numbers refer to the chain shown, from its start. “And” between values parts separate entries of the source, which are not always exact repeats. Equal entries are not always repeated. “Also recorded” adds a separate entry of the source.

How the values were obtained:
T2R38 = biological target: T1, T2R38 (Homo sapiens, UniProt P59533, A49P/I296V); assay: Single cell calcium imaging, Peakrapid cells (Gα16gustducin44) transiently transfected with T2R38; type: cell-based; conditions: for response of T2R38 PAV transfected cells (S7_fig raw data): individual values of experiments 1-5; for specific activation of T2R38: ethanol-solubilized
T1 construct: leader: first 45 amino acids of rat somatostatin receptor subtype 3 (SSTR3) (N); expressed in transfected cells; host or cells: Peakrapid cells (HEK293 derivative, ATCC CRL-2828) stably expressing Galpha16gustducin44, co-transfected with human RTP4
T1 sequence (P59533 1-333 A49P/I296V): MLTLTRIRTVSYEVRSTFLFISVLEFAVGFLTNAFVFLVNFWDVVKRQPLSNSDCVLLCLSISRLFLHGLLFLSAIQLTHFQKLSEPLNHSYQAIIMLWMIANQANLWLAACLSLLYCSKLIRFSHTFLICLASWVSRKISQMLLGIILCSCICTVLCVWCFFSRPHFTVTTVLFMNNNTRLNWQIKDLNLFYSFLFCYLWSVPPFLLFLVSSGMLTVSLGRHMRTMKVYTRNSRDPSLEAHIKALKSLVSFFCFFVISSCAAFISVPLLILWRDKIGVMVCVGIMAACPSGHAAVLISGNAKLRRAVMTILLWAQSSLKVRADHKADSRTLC
Text: (§1) The coding sequences of either the functional (PAV, GenBank accession number AY258597.1) and non-functional (AVI, GenBank accession number AF494231.1) were amplified from human genomic DNA by polymerase chain reaction.
These coding sequences were cloned in a pEFIB backbone vector in translational fusion with the coding sequence of a leader sequence corresponding to the 45 first amino acids of the rat somatostatin receptor subtype 3 [20]. The constructs were verified by sequencing. The coding sequence of RTP4 (Genbank accession number AY562238.1) was amplified from human spleen cDNA and cloned a pCI backbone vector.
The Gα16gustducin44 sequence was generated by swapping the last 132 nucleotides of the G α16 with the corresponding terminal sequence of the Gα-gustducin [21] and was cloned in a pIRES-Puro plasmid. This vector was transfected in the Peakrapid cell line (ATCC reference: CRL-2828™; purchased from LGC Standards SARL, Molsheim, FRANCE), HEK293 cell line derivative, cultured in EMEM culture medium (reference BE12-136F; Lonza, Vervier, BELGIUM) supplemented with 10% of foetal bovine serum (Sigma-Aldrich, Bornem, Belgium) and 1 μg/ml of Puromycin to allow the selection of recombinant cell populations. Cell clones expressing the Gα16gustducin44 were selected and the clone presenting the best functional response of T2R38 to phenylthicarbamide was used for the study (see below).
(§2) The Peakrapid cell line expressing stably a chimeric Gα16gustducin44 G protein [21] was used. 40 000 cells were seeded in each well of a black/clear poly-D-lysine cellware pre-coated 96-well plate (Biocoat®, Becton-Dickinson, Erembodegem, Belgium) and transiently transfected with 50 ng of plasmid DNA containing the receptor sequence or not (empty vector) and with 50 ng of chaperone protein RTP4 per well. Forty hours after transfection, cells were incubated with the calcium-sensitive dye Fluo4 (Life Technologies, Oregon, USA) solubilized at 10 μg/ml in a buffer containing EMEM (150 mM NaCl, 5 mM KCl, 2 mM CaCl2, 1.2 mM MgCl2, 10 mM glucose), 10 mM HEPES, 0.01% (v/v) Pluronic F127, 0.1% (w/v) bovine serum albumin. After 1 h incubation at 37°C, cells were rinsed twice with the same buffer without Fluo4 and left in 50 μl buffer (prior ligand injection). Measurement were performed on a platform based on a motorized Axiobserver Z1 fluorescence microscope piloted by a Axiovision software (Zeiss, Jena, Germany) as described previously. For each selected well, images were taken 1 per second, during 30 seconds. 50 μl of the buffer containing the ligand twice concentrated was injected on the 2nd second of the time lapse record.
After time lapse record, the number of responding cells in each injected well was determined using ImageJ 1.34 (Rasband, W.S., ImageJ, National Institutes of Health, Bethesda, Maryland, USA, http://rsb.info.nih.gov/ij/1997-2004), and expressed as the percentage of the surface of a microscope field covered by activated cells with respect to the total surface of the field covered by confluent cells. Automated determination of the surface occupied by responding cells is easier to perform than a cell counting. The resulting percentage of positive surface provided a convenient estimation of the percentage of responding cells, as observed by comparing the percentage of positive surface and percentage of responsive cells determined by direct counting, in the same experiment. In agreement with the literature, the percentage of responding cells was proportional to the agonist concentration. During experiment in each plate, at least 2 wells were tested with phenylthiocarbamide (PTC) at 0.1 mM, which is one of the best characterized agonist of T2R38 in the literature. The activation of T2R38 by PTC allows normalization of the result of other tested molecules. The results were thus expressed as the percentage of PTC activation. […]

T2R38 AVI = biological target: T2, T2R38 AVI (Homo sapiens, UniProt P59533, A262V); assay: Single cell calcium imaging, control: cells transfected with nonfunctional allele (AVI) of T2R38; type: cell-based; conditions: T2R38 AVI, individual values of experiments 1-5
T2 construct: leader: first 45 amino acids of rat somatostatin receptor subtype 3 (SSTR3) (N); expressed in transfected cells; host or cells: Peakrapid cells (HEK293 derivative, ATCC CRL-2828) stably expressing Galpha16gustducin44, co-transfected with human RTP4
T2 sequence (P59533 1-333 A262V): T1 sequence (P59533 1-333 A49P/I296V) with P49A, A262V, V296I
Experimental: as §1, §2
(§3) After time lapse record, the number of responding cells in each injected well was determined using ImageJ 1.34 (Rasband, W.S., ImageJ, National Institutes of Health, Bethesda, Maryland, USA, http://rsb.info.nih.gov/ij/1997-2004), and expressed as the percentage of the surface of a microscope field covered by activated cells with respect to the total surface of the field covered by confluent cells. Automated determination of the surface occupied by responding cells is easier to perform than a cell counting. The resulting percentage of positive surface provided a convenient estimation of the percentage of responding cells, as observed by comparing the percentage of positive surface and percentage of responsive cells determined by direct counting, in the same experiment. In agreement with the literature, the percentage of responding cells was proportional to the agonist concentration. During experiment in each plate, at least 2 wells were tested with phenylthiocarbamide (PTC) at 0.1 mM, which is one of the best characterized agonist of T2R38 in the literature. The activation of T2R38 by PTC allows normalization of the result of other tested molecules. The results were thus expressed as the percentage of PTC activation. In scaling calcium imaging assays using this latter receptor, concentration-responses curves were performed and data were fitted to a four parameter logistic equation: y=min+ (max− min)/1+10 ^(logEC50−x)nH . Min and max are the minimum and the maximum values of the percentage of cell-activated surface respectively, y is the percentage of cell-activated surface at the x concentration and nH is the Hill coefficient.

[1] = tested on: mock transfected cells (empty vector); assay: Single cell calcium imaging, control: mock transfected (empty vector) Peakrapid cells; type: cell-based, human
Experimental: as §2, §3

[2] = 1mM in DMSO 1.5%, listed as HSL-C12
[3] = 1mM in EtOH 2%, listed as HSL-C12

Compound	agonist activity on T2R38 (in words) (T2R38)	EC50 (T2R38; EC50, concentration-response curve)	response of T2R38 PAV transfected cells (S7_fig raw data) (T2R38; listed as g-butyrolactone)	EC50 (T2R38; logEC50, printed in the picture of the concentration-response curve)	Emax (T2R38; read-out: Emax (% of positive control))	response of T2R38 AVI transfected cells (S7_fig raw data) (T2R38 AVI; listed as g-butyrolactone)	response of T2R38 PAV transfected cells (S7_fig raw data) (T2R38)	response of T2R38 AVI transfected cells (S7_fig raw data) (T2R38 AVI)	percentage of surface covered by activated cells (T2R38; 0.1mM in DMSO 0.15%)	percentage of surface covered by activated cells (T2R38; 0.1mM in DMSO 0.3%)	specific activation of the receptor (T2R38; 0.1 mM with either 0.3% or 0.15% DMSO in the incubation buffer)	percentage of surface covered by activated cells (T2R38; [2])	percentage of surface covered by activated cells (T2R38; [3])	average calcium response, % of the one induced by 0.1 mM of PTC (T2R38; dissolved in DMSO 1.5% (209 mM))	specific activation of T2R38 (T2R38)	specific activation of T2R38 (T2R38; listed as HSLC12)	percentage of surface covered by activated cells ([1]; 0.1mM in DMSO 0.15%)	percentage of surface covered by activated cells ([1]; 0.1mM in DMSO 0.3%)	percentage of surface covered by activated cells [1, 2]	percentage of surface covered by activated cells [1, 3]
O=C1CCCO1 [γ-butyrolactone]	able to specifically trigger this receptor	12 mM	18% and 20% and 13% and 12% (2×) and 14% and 11% (2×) and 9.52% and 15%	12 mM	33%	0.0283% and 0.0479% and 0.129% and 0.148% and 0.16% and 0.208% and 0.188% and 0.394% and 0.0477% and 0.222%														
CSSC [diméthyldisulfide]							18% and 12% (2×) and 2.83% and 2.52% and 3.72% and 7.4% and 9% and 2% and 0.585%	0.145% and 0.026% and 1.18% and 0.463% and 1.36% and 1.27% and 1.33% and 1.1% and 0.0987% and 0.185%												
CCCCCCCCCC(=O)CC(=O)N[C@H]1CCOC1=O [C12HSL, N-3-oxo-dodecanoyl-L-homoserine lactone, reference compound]	are not agonists of the receptor in our hands								0.46% and 1.07% and 1.52% and 0.39%	0.20% and 0.64% and 1.46% and 0.93%	did not trigger any specific activation of the receptor; also recorded: did not trigger any specific activation of T2R38	8.51% and 3.40% and 8.12% and 5.47% and 4.84% and 9.74%	2.04% and 1.92% and 1.33% and 4.51% and 5.83% and 3.09%	42%	did not trigger a specific activation of T2R38	remained without effect on the receptor	0.22% and 0.19%	0.00881% and 0.16%	0.92% and 1.51% and 1.40% and 0.48% and 0.97% and 3.05%	0.58% and 7.03% and 2.23% and 2.90% and 5.38% and 0.28%
